Assay results as given in patent US11040052B2, “Methods and pharmaceutical compositions for modulating autophagy in a subject in need thereof” (INSERM (INSTITUT NATIONAL DE LA SANTE ET DE LA RECHERCHE …, priority 2013, dated 2021).
Entries after “also recorded” stand apart in the source; their conditions may differ.

Columns and labels:
cellular ATP levels = assay: Cellular ATP levels; type: cell-based; conditions: starved cells
[1] = test system: U2OS cells stably expressing GFP-LC3; assay: Microinjection of AcCoA or CoA into the cytoplasm; type: cell-based, human; conditions: 10 mM injected; for Hydroxycitrate-induced autophagy after microinjection: HC-treated cells
Description: For microinjection, U2Os cells were cultured overnight on glass coverslips before injection. The setup for the injection itself was as follows: 10 mM CoA or AcCoA were injected in PBS for 0.2 s under a pressure of 150 hPa, using a Microinjector equipment (Eppendorf, Hamburg, Germany). Then cells were culture for 3 h in the presence of 100 nM bafilomycin A1 (BafA1) and fixed for fluorescence microscopy, as described below.
For microinjection, U2OS cells were cultured overnight on culture dishes before injection. The setup for the injection itself was as follows: 10 mM CoA or AcCoA in PBS were injected for 0.2 s under an injection pressure of 150 hPa and a compensatory pressure of 9 hPa, using a microinjector (Eppendorf, Hamburg, Germany). Before injection, cells were cultured for 2 h in the presence of 100 nM bafilomycin A1 (BafA1) in control medium and in presence of 20 mm Hydroxycitrate. One hour after injection, cells were fixed with 4% PFA and analyzed by fluorescent and automated videomicroscopy.

[2] = test system: MPA/DMBA induced mammary tumors; assay: MPA/DMBA induced mammary tumor; type: in vivo, mice; conditions: mouse, in vivo
Description: Six-week-old female Balb/c mice underwent surgical implantation of slow-release MPA (Medroxyprogesterone Acetate) pellets (50 mg, 90-day release; Innovative Research of America) subcutaneously on the right flank. 200 uL of 5 mg/mL DMBA (Dimethylbenzantracene)
(Sigma Aldrich) dissolved in Corn Oil was administered by oral gavage six times during 8 weeks. Tumor formation was monitored by palpation. When tumors became palpable, mice were assigned to following groups of treatment: PBS, HCA, MTX, MTX plus HCA and the MTX plus HCA upon CD4/CD8 lymphocytes depletion. Combinatorial groups were treated as previously described, whereas for CD4/CD8 depletion, mice were intraperitoneally administrated with 500 μg of anti CD4 and CD8 antibodies the day before the onset of the treatment.

[3] = test system: intracellular amino acid levels; assay: Intracellular amino acid levels by mass spectrometry; type: cell-based; conditions: starved cells
Description: Profiling of intracellular metabolites was performed on a RRLC 1260 system (Agilent Technologies) coupled to a QTOF 6520 (Agilent) equipped with an electrospray source operating in positive ion and full scan mode from 100 to 1000 Da. The gas temperature was set at 350° C. with a gas flow of 10 L·min^1. The capillary voltage was set at 4.0 kV, and the fragmentor at 150 V. Two reference masses were used to maintain the mass accuracy during analysis: 121.050873 (C5H4N4) and 922.009798 (C18H18O6N3P3F24). Five μL of sample were injected on a 150 mm×2.1 mm 3.5 μm SB Aq column (Agilent) with a pre-column 30 mm×2.1 mm 3.5 μm Eclipse plus (Agilent). The gradient mobile phase consisted of water with 10 mmol/L of ammonium acetate and 0.01% of acetic acid (A) and acetonitrile (B). Initial composition of mobile phase was 2% of B, followed by an increase to 95% of B in 10 min. The flow rate was set to 0.3 mL·min^−1.

MCA205 tumor = assay: Growth of transplantable tumors with chemotherapy; type: in vivo, mice; conditions: for tumor growth, combined with MTX: immunocompetent wild type mice, agent given before and with mitoxanthrone; for tumor growth, combined with MTX, immunodeficient mice: nu/nu (nude athymic) mice
Description: (§1) C57BL/6 mice (Charles River Laboratory, Lentilly, France) were bred and maintained according to both the FELASA and the Animal Experimental Ethics Committee Guidelines (Val de Marne, France). Mice were housed in a temperature-controlled environment with 12 h light/dark cycles and received food and water ad libitum. For HC-related experiments, mice were injected intraperitoneally with a single 100 mg/kg dose and 6 h later were sacrificed and tissues were immediately frozen in liquid nitrogen. For DCA- and DMKG-related experiments, mice were subjected to 24 h starvation and injected intraperitoneally each 8 h with a 100 mg/kg of either DCA or DMKG solution prepared in PBS. After 24 h of starvation, mice were sacrificed and tissues were immediately frozen in liquid nitrogen after extraction and homogenized two cycles for 20 s at 5,500 rpm using Precellys 24 tissue homogenator (Bertin Technologies, Montigny-le-Bretonneux, France) in a 20 mM Tris buffer (pH 7.4) containing 150 mM NaCl, 1% Triton X-100, 10 mM EDTA and Complete® protease inhibitor cocktail (Roche Applied Science). Tissue extracts were then centrifuged at 12,000 g at 4° C. and supernatants were collected. Protein concentration in the supernatants was evaluated by the bicinchoninic acid technique (BCA protein assay kit, Pierce Biotechnology, Rockford, Ill.). For hydroxycitrate-related weight-loss experiments, autophagy-deficient Atg4b^−/− mice were used. Atg4b^−/− mice have been previously described (Mariño et al., 2010). For HC-, spermidine-, and resveratrol-related experiments (tumour growth) mice were intraperitoneally injected with respectively 100 mg/kg, 50 mg/kg and 100 mg/kg doses at day 8 and day 9. At day 9, mice were intraperitoneally injected with 2 mg/kg single dose of Mitoxanthrone. For starvation related experiment (tumour growth) mice were treated as previously described (Fabrizio et. al., 2010).
Six weeks old female C57BL/6, Balb/c and nude athymic mice (Harlan Laboratory, Gannat, France) were bred and maintained according to both the FELASA and the Animal Experimental Inserm Ethics Committee Guidelines (project: 2012-69). Mice were housed in a temperature-controlled environment with 12 h light/dark cycles and received food and water ad libitum. For tumor growth experiments, procedures adopted are described as follows: 3×10^5 tumor cells were subcutaneously inoculated; when tumors became palpable (day −1 before chemotherapy), mice were first intraperitoneally injected with 100 mg/kg Potassium Hydroxycitrate, 10 mg/kg Acetylsalicylic Acid, 30 mg/kg SB204990, 30 mg/kg c646, 5 mg/kg Rapamycin, 25 mg/kg Resveratrol, 50 mg/kg Spermidine. At day 0, mice were intraperitoneally injected with the abovementioned compounds and with 5.17 mg/Kg Mitoxanthrone or 5 mg/kg Oxaliplatin. Tumor size was measured every two days. For starvation experiments, mice underwent 48 hour fasting followed by intreperitoneal injection of chemotherapeutics. For autophagy induction study, 6 hours after CRMs administration, mice were sacrificed and tissues were snap-frozen in liquid nitrogen after extraction and homogenized two cycles for 20 s at 5,500 rpm using Precellys 24 tissue homogenator (Bertin Technologies, Montigny-le-Bretonneux, France) in a 20 mM Tris buffer (pH 7.4) containing 150 mM NaCl, 1% Triton X-100, 10 mM EDTA and Complete® protease inhibitor cocktail (Roche Applied Science, Penzberg, Germany). Tissue extracts were then centrifuged at 12,000 g at 4° C. and supernatants were collected. Protein concentration in the supernatants was evaluated by the bicinchoninic acid technique (BCA protein assay kit, Pierce Biotechnology, Rockford, US.

[4] = test system: autophagy in mice tissues; assay: Autophagy induction in tissues of fed mice (LC3 lipidation, p62, GFP-LC3 dots); type: in vivo
Description: as §1
To avoid post-mortem autophagy induction, dead mice were immediately perfused with 4% paraformaldehyde (w:v in PBS, pH 7.4). Tissues were then harvested and further fixed with the same solution for at least 4 h, followed by treatment with 15% sucrose (w:v in PBS) for 4 h and with 30% sucrose (w:v in PBS) overnight. Tissue samples were embedded in Tissue-Tek OCT compound (Sakura Finetechnical Co. Ltd., Tokyo, Japan) and stored at −70° C. Five μm-thick tissue sections were prepared with a CM3050 S cryostat (Leica Microsystems GmbH, Wetzlar, Germany), air-dried for 1 h, washed in PBS for 5 min, dried at RT for 30 min, and mounted with VECTASHIELD anti-fading medium. In each organ, the number of GFP-LC3 dots was counted in five independent visual fields from at least five mice using a TCS SP2 confocal fluorescence microscope (Leica Microsystems GmbH).
Six weeks old female C57BL/6, Balb/c and nude athymic mice (Harlan Laboratory, Gannat, France) were bred and maintained according to both the FELASA and the Animal Experimental Inserm Ethics Committee Guidelines (project: 2012-69). Mice were housed in a temperature-controlled environment with 12 h light/dark cycles and received food and water ad libitum. For tumor growth experiments, procedures adopted are described as follows: 3×10^5 tumor cells were subcutaneously inoculated; when tumors became palpable (day −1 before chemotherapy), mice were first intraperitoneally injected with 100 mg/kg Potassium Hydroxycitrate, 10 mg/kg Acetylsalicylic Acid, 30 mg/kg SB204990, 30 mg/kg c646, 5 mg/kg Rapamycin, 25 mg/kg Resveratrol, 50 mg/kg Spermidine. At day 0, mice were intraperitoneally injected with the abovementioned compounds and with 5.17 mg/Kg Mitoxanthrone or 5 mg/kg Oxaliplatin. Tumor size was measured every two days. For starvation experiments, mice underwent 48 hour fasting followed by intreperitoneal injection of chemotherapeutics. […]

[5] = chronic treatment; cited from earlier work

SMILES: Cn1cnc(N)c2ncnc1-2 [3-MA, 3-methyladenine]
- cellular ATP levels in starved cells (cellular ATP levels): similarly reduced ATP content

SMILES: CC(=O)SCCNC(=O)CCNC(=O)[C@H](O)C(C)(C)COP(=O)(O)OP(=O)(O)OC[C@H]1O[C@@H](n2cnc3c(N)ncnc32)[C@H](O)[C@@H]1OP(=O)(O)O [AcCoA, acetyl-coenzyme A]
- Hydroxycitrate-induced autophagy after microinjection [1]: suppressed by microinjection of AcCoA
- Hydroxycitrate-induced autophagy after microinjection ([1]; listed as Acetyl CoA): inhibits Hydroxycitrate-induced autophagy
- cytoplasmic protein acetylation after microinjection ([1]; starved cells): increased the levels of cytoplasmic protein acetylation
- starvation-induced autophagic flux after microinjection ([1]; starved cells): reduced starvation-induced autophagic flux

SMILES: O=C1c2c(O)ccc(O)c2C(=O)c2c(NCCNCCO)ccc(NCCNCCO)c21 [MTX, mitoxanthrone]
- mammary tumor growth, monotherapy [2]: had little effect

SMILES: NC(=O)CC[C@H](N)C(=O)O [glutamine]
- intracellular amino acid levels [3]: did increase cellular glutamate levels

SMILES: Oc1ccc(C=Cc2cc(O)cc(O)c2)cc1 [resveratrol]
- tumor growth, combined with MTX (MCA205 tumor): capable to recapitulate the positive combinatorial effect of starvation; also recorded: HC could be replaced
- tumor growth, combined with MTX (MCA205 tumor; listed as Resveratrol): mimics the effects of 48 h fasting in delaying subcutaneous MCA205 tumor growth
- tumor growth, combined with MTX, immunodeficient mice (MCA205 tumor): failed
- autophagy in vivo (LC3 lipidation, p62, GFP-LC3) [4]: elicits autophagy in mice muscle after 6 hours

SMILES: NCCCCNCCCN [spermidine]
- tumor growth, combined with MTX (MCA205 tumor): capable to recapitulate the positive combinatorial effect of starvation; also recorded: HC could be replaced
- tumor growth, combined with MTX (MCA205 tumor; listed as Spermidine): mimics the effects of 48 h fasting in delaying subcutaneous MCA205 tumor growth; also recorded: can enhance chemotherapy efficacy
- tumor growth, combined with MTX, immunodeficient mice (MCA205 tumor): failed
- autophagy in vivo (LC3 lipidation, p62, GFP-LC3) [4]: elicits autophagy in mice muscle after 6 hours
- health and life spans of mice [5]: extends the health and life spans of mice
